The values that follow come from BindingDB's records for doi:10.1126/science.2551039 (UniversitÄT Heidelberg, 1989).

Assay [1] has as its target T1, Gamma-aminobutyric acid receptor subunit alpha-2 (Homo sapiens, UniProt P47869).
T1 sequence (P47869 whole entry): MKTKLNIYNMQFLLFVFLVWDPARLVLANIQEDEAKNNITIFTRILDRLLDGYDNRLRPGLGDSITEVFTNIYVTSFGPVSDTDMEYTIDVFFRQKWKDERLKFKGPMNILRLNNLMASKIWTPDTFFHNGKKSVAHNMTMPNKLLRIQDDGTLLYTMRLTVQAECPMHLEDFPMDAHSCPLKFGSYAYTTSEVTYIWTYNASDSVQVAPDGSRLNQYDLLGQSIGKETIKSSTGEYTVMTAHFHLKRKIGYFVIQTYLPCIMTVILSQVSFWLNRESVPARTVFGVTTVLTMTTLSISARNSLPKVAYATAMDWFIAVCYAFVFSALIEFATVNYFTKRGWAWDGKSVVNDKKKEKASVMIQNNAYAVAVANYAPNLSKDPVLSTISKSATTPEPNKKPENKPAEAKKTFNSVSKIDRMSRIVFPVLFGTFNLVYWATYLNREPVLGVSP

Assay [2] deals with T2, Gamma-aminobutyric acid receptor subunit alpha-3 (Homo sapiens, UniProt P34903).
T2 sequence (P34903 whole entry): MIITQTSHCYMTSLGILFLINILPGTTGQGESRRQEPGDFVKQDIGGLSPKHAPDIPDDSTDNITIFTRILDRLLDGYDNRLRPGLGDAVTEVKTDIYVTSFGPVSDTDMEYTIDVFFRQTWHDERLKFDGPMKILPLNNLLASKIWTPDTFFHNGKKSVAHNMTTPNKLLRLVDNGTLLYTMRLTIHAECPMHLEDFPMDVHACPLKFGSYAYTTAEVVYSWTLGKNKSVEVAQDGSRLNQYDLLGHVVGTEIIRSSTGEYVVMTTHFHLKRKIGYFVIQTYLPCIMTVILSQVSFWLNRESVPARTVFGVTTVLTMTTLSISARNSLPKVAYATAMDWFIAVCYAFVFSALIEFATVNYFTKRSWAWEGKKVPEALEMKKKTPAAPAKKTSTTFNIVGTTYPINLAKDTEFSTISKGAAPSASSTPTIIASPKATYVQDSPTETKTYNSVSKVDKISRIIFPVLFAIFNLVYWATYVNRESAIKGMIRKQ

Assay [3] addresses T3, Gamma-aminobutyric acid receptor subunit alpha-1 (Homo sapiens, UniProt P14867).
T3 sequence (P14867 whole entry): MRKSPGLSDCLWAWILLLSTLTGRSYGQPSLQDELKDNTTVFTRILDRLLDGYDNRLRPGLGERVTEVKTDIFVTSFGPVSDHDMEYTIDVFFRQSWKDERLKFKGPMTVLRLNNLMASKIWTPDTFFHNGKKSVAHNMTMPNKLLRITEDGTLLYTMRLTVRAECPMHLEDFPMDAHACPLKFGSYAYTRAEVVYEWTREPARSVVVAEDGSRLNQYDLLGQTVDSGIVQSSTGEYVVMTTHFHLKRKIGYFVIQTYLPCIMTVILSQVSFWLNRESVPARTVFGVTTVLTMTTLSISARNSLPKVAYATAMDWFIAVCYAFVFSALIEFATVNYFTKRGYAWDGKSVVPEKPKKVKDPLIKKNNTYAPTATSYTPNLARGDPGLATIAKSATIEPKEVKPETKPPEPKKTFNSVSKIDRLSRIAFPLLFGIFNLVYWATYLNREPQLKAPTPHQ

Where “and” joins values, the source holds several entries; their conditions need not be identical. Equal values may be shown once.

Consider `Cc1nnc2ccc(-c3cccc(C(F)(F)F)c3)nn12`, for which the inhibition constant (Ki) – broadly, a measure of affinity in units of concentration, obtained from inhibition or displacement – in assay [1] was 2 µM and 1.74 µM; in assay [2], 1.79 µM and 1.62 µM; in assay [3], 0.405 µM and 0.108 µM.

With `COC(=O)c1cc2c(cn1)[nH]c1ccccc12`, the results for the Ki in assay [1], in assay [2] and in assay [3] were 0.0029 µM, 0.0041 µM and 0.00078 µM, respectively.

`O=C1CN=C(c2ccccc2Cl)c2cc([N+](=O)[O-])ccc2N1` [5-(2-chlorophenyl)-7-nitro-1,3-dihydro-2H-1,4-benzodiazepin-2-one]: the inhibition constant Ki in assay [1] is 0.0017 µM; in assay [2], 0.002 µM; in assay [3], 0.00127 µM.

In the case of `O=C1CN=C(c2ccccc2F)c2cc(Cl)ccc2N1CC(F)(F)F` [NSC_93250], the values for the Ki in assay [1] and in assay [2] were 0.236 µM and 0.205 µM, respectively.

As to `CCc1c(C(=O)OC)ncc2[nH]c3cc(OC)c(OC)cc3c12` [NSC_104999], the inhibition constant (Ki) in assay [1] came to 0.0144 µM; in assay [2] it was 0.0106 µM; in assay [3] it was 0.0053 µM.
